One assay relates to Fab region. The settings on record: Non-patent Documents 1 and 2; cited from earlier work.
Another assay deals with Anti-RSV antibody - Fab. Description: Biacore surface plasmon resonance affinity for IgG-Fab of anti-RSV monoclonal antibody. It counts as binding, human. An excerpt:
(§1) A humanized monoclonal IgG product as a raw material was fragmented into a Fab fragment and a Fc fragment using papain, and only the Fab fragment was separated and purified. Hereinafter, a method for producing IgG-Fc/IgG-Fab derived from anti-RSV monoclonal antibody (generic name: Palivizumab) is described. The term “RSV” is an abbreviation of RS virus. In the present disclosure, when other IgG-Fc and IgG-Fab were used for evaluation, the fragments were basically prepared in a similar method.
(§2) Specifically, a humanized monoclonal IgG product (“Synagis” manufactured by CHUGAI PHARMACEUTICAL CO., LTD., in the case of anti-RS virus monoclonal agent) was dissolved in a buffer for papain treatment (0.1M AcOH—AcONa, 2 mM EDTA, 1 mM cysteine, pH 5.5), and agarose immobilized by papain (“Papain Agarose from papaya latex” manufactured by SIGMA) was added thereto. The mixture was incubated with stirring by a rotator at 37° C. for about 8 hours. The IgG-Fc was purified from the reaction mixture which contained both of a Fab fragment and a Fc fragment and which was separated from the agarose immobilized by papain by recovering the IgG-Fc as a flow-through fraction of an affinity chromatography using Kappa Select column (manufactured by GE Healthcare Bioscience). The IgG-Fab was purified by recovering the IgG-Fab as a flow-through fraction in an affinity chromatography using KanCapA column (manufactured by GE Healthcare Bioscience). The obtained crude IgG-Fc solution was subjected to purification by gel filtration chromatography using Superdex 75 10/300 GL column to obtain IgG-Fc solution. In the chromatography, a standard buffer was used for equilibration and separation. The obtained crude IgG-Fab solution was similarly subjected to purification. […]
(§3) The affinity of the peptide obtained in the above-described Example 1(2) for the Fc region and Fab region of anti-RSV monoclonal antibody was evaluated using a biosensor Biacore3000 (manufactured by GE Healthcare Bioscience) utilizing surface plasmon resonance. […]

In a further assay the test system is Anti-EGFR antibody - Fab. Description: Biacore surface plasmon resonance affinity for IgG-Fab of anti-EGFR monoclonal antibody. It counts as binding. The protocol: The affinity of the peptide obtained in the above-described Example 1(2) for the Fc region and Fab region of anti-RSV monoclonal antibody was evaluated using a biosensor Biacore3000 (manufactured by GE Healthcare Bioscience) utilizing surface plasmon resonance. In the present Example, the IgG-Fc or IgG-Fab obtained in the above-described Example 2(1) was immobilized on a sensor tip, and the peptide solution was flowed across the sensor tip to detect the interaction between the two. The IgG-Fab or IgG-Fc was immobilized on a sensor tip CM5 by amine coupling method using N-hydroxysuccinimide (NHS) and N-ethyl-N′-(3-dimethylaminopropyl)carbodiimide hydrochloride (EDC), and ethanolamine was used for blocking. All of the sensor tip and reagents for immobilization was manufactured by GE Healthcare Bioscience. The IgG-Fab solution was diluted to about 10 times using a buffer for immobilization (10 mM AcOH—AcONa, pH 4.5), and the IgG-Fab was immobilized on the sensor tip in accordance with the protocol attached to the Biacore 3000. In addition, a reference cell as negative control was also prepared by activating another flow cell on the tip with EDC/NHS and then immobilizing ethanolamine only. Peptide solutions having concentrations of 16 nM, 64 nM or 256 nM were prepared using a running buffer (20 mM NaH2PO4—Na2HPO4, 150 mM NaCl, 0.005% P-20, pH 7.4). Each peptide solution was added to the sensor tip in a flow rate of 40 μL/min for 1 minute. Bonding response curves at the time of addition (association phase, 1 minute) and after the addition (dissociation phase, 1 minute) were sequentially obtained at a measurement temperature of 25° C. […]
(§4) Also, the affinity of the peptide according to the present invention (SEQ ID NO: 2) for IgG-Fab prepared from anti-EGFR monoclonal antibody (“Erbitux” sold by Bristol-Myers Squibb) and anti-TNFα monoclonal antibody (“Remicade” sold by Mitsubishi Tanabe Pharma Corporation) was evaluated. The IgG-Fab was prepared in a similar manner to the above-described (1), and the affinity was basically evaluated in a similar manner to the above-described (2). […]
On the technique in general: SPR reads the build-up and loss of mass on a sensor chip optically.

For a further assay, the system named is Anti-TNFα antibody - Fab. Description: Biacore surface plasmon resonance affinity for IgG-Fab of anti-TNFα monoclonal antibody. It counts as binding. The protocol: The affinity of the peptide obtained in the above-described Example 1(2) for the Fc region and Fab region of anti-RSV monoclonal antibody was evaluated using a biosensor Biacore3000 (manufactured by GE Healthcare Bioscience) utilizing surface plasmon resonance. In the present Example, the IgG-Fc or IgG-Fab obtained in the above-described Example 2(1) was immobilized on a sensor tip, and the peptide solution was flowed across the sensor tip to detect the interaction between the two. The IgG-Fab or IgG-Fc was immobilized on a sensor tip CM5 by amine coupling method using N-hydroxysuccinimide (NHS) and N-ethyl-N′-(3-dimethylaminopropyl)carbodiimide hydrochloride (EDC), and ethanolamine was used for blocking. All of the sensor tip and reagents for immobilization was manufactured by GE Healthcare Bioscience. The IgG-Fab solution was diluted to about 10 times using a buffer for immobilization (10 mM AcOH—AcONa, pH 4.5), and the IgG-Fab was immobilized on the sensor tip in accordance with the protocol attached to the Biacore 3000. […]
as §4
Each peptide was prepared in a similar method to the above-described Example 1 except that the combination of single-stranded oligo DNAs shown in Table 3 was used for preparing expression plasmid. […] As representative data, the affinity for IgG-Fab of anti-TNFα monoclonal antibody was evaluated by a similar manner to the above-described Example 2. […] For example, the value in the left graph is logarithm (Log 10) of a value calculated by dividing an affinity constant (KA) of each peptide by an affinity constant of SEQ ID NO: 2. […]

In another assay the target is T1, Anti-RSV antibody - Fc (Homo sapiens, UniProt P01857).
T1 construct: a Fc region of a heavy chain is composed of CH2 and CH3; purchased CHUGAI PHARMACEUTICAL CO., LTD; Synagis
The assay is described as follows: Biacore surface plasmon resonance affinity for IgG-Fc of anti-RSV monoclonal antibody. It counts as binding.
From the text: as §1, §2, §3

In assay [1] the test system is IgG-Fab of anti-TNFα monoclonal antibody. The assay is described as follows: Binding response versus peptide concentration on immobilized IgG-Fab (Biacore). To be noted: about 10000 RU immobilized, peptide 25-200 nM, response 1 minute after addition, SEQ ID NO: 14 specifically 0.4 to 0.6.
For assay [2], the target named is T2, IgG-Fc of anti-TNFα monoclonal antibody (Homo sapiens, UniProt P01857).
T2 construct: a Fc region of a heavy chain is composed of CH2 and CH3; purchased Mitsubishi Tanabe Pharma Corporation Remicade
Description: Binding response versus peptide concentration on immobilized IgG-Fc (Biacore). To be noted: about 10000 RU immobilized, peptide 25-200 nM, response 1 minute after addition, SEQ ID NO: 14 specifically 0.4 to 0.6.

Another assay relates to Fab fragment. The assay is described as follows: Association constant of wild Protein G to Fab fragment in Biacore system. It counts as binding. To be noted: 25° C., pH 7.4. An excerpt: For example, as a binding parameter, association constant (KA) and dissociation constant (KD) can be used ([NT] et al., “Real-Time Analysis Experimental Method for Interaction Between Biological Substances”, Springer-Verlag Tokyo, 1998, p. 41). An association constant between the present invention peptide and a Fc fragment or a Fab fragment can be measured by immobilizing a Fc fragment or a Fab fragment on a sensor tip and adding the present invention peptide into a flow channel under a condition of the temperature of 25° C. and pH 7.4 in Biacore system. In an experiment utilizing Biacore system, the order of a parameter may be largely changed depending on an experimental condition, an analysis method and/or the kind of used original IgG. Under such a circumstance, when an evaluation is also conducted by using a wild Protein G in the same experimental condition and analysis method, it becomes standard whether the measured association constant is larger or not in comparison with the association constant of wild Protein G to a Fab region. The performance of a conventional wild Protein G is not sufficient as a peptide which binds to both of a Fc region and a Fab region of an immunoglobulin G, since the binding force thereof to a Fab region is not sufficient. […] A wild Protein G is easily available as a commercial reagent for study. […]

The mark [3] stands for this setting: Anti-RSV antibody - Fab immobilized, 25° C., pH 7.4, 1:1 binding model.
The mark [4] stands for this setting: Anti-RSV antibody - Fc immobilized, 25° C., pH 7.4, 1:1 binding model.

For the substance “Protein G: IgG-binding cell wall protein produced by Streptococcus sp. classified into Group G”, the “association constant (KA) to a Fab region, times less than that to a Fc region” value in the assay on Fab region is 10 times.

With “SEQ ID NO: 2: IgG-binding peptide (SpG mutant) having the amino acid sequence of SEQ ID NO: 2, with N-terminal Gly-Pro-Leu-Gly-Ser from the vector (TTYKLILNGKTLTGYTTAIAADAATAEIVLKQFANDNGIDGEWTYDDATKTFTVTE; N-terminal vector-derived residues; Immunoglobulin-binding peptide)”, the koff (usually the first-order rate constant of dissociation) with Anti-RSV antibody - Fab (setting [3]) amounted to 0.003 s⁻¹; in the assay on Anti-EGFR antibody - Fab (peptide 25, 100, 400 nM), 0.039 s⁻¹; with Anti-TNFα antibody - Fab (peptide 25, 100, 400 nM), 0.01 s⁻¹; with Anti-RSV antibody - Fc (setting [4]) it was 0.028 s⁻¹. Also, the kon in the assay on Anti-RSV antibody - Fab (setting [3]) amounted to 66000 s/M; in the assay with Anti-EGFR antibody - Fab (peptide 25, 100, 400 nM) it was 252000 s/M; with Anti-TNFα antibody - Fab (peptide 25, 100, 400 nM), 413000 s/M; in the assay with Anti-RSV antibody - Fc (setting [4]), 97000 s/M. Besides, the KA came to 2e+07 M⁻¹ in the assay with Anti-RSV antibody - Fab (Anti-RSV antibody - Fab, KA=kon/koff); 6.5e+07 M⁻¹ in the assay with Anti-EGFR antibody - Fab (KA=kon/koff); 4e+07 M⁻¹ in the assay on Anti-TNFα antibody - Fab (KA=kon/koff); 3.5e+06 M⁻¹ with Anti-RSV antibody - Fc (Anti-RSV antibody - Fc, KA=kon/koff).

“SEQ ID NO: 14: IgG-binding peptide; difference from SEQ ID NO: 2: Xaa21 = Asp, Xaa28 = Lys (TTYKLILNGKTLTGYTTAIADDAATAEKVLKQFANDNGIDGEWTYDDATKTFTVTE; Immunoglobulin-binding peptide)”: the “inclination of approximate curve of binding response versus peptide concentration” value in assay [1] and in assay [2] was “about 0.5” throughout.

Consider “wild Protein G: conventional wild Protein G, available as a commercial reagent for study”, for which the “association constant KA to a Fab fragment, as an order” value in the assay on Fab fragment is reported as “about 10^5”.
